Results on five compounds are retold here after ChEMBL document CHEMBL6182934, “Photo-clenbuterol: Optical Control of β2-Adrenergic Receptor Signaling by Photoswitchable Ligand Efficacy” (J Med Chem, 2025).

Molecules are shown by their SMILES.

The nature of the data set: Photothermal stability of compound in HBSS buffer assessed as thermal relaxation half life measured after pre-illumination of compound to reach cis-isomer. In kind it is physicochemical.
For `CC(C)(C)NCC(O)c1cc(Cl)c(/N=N/c2ccccc2)c(C#N)c1` (racemic), the half-life was 11 days. With `CC(C)(C)NCC(O)c1ccc(/N=N/c2ccccc2)c(Cl)c1` (racemic), the half-life was 38 days. For `CC(C)(C)NCC(O)c1cc(Cl)c(/N=N/c2c(Cl)cccc2Cl)c(Cl)c1` (racemic), the half-life was 26 days.

Regarding `CC(C)(C)NCC(O)c1ccc(/N=N/c2ccccc2)cc1` (racemic), the half-life was 29 days. For the compound `CC(C)(C)NCC(O)c1cc(Cl)c(/N=N/c2ccccc2)c(Cl)c1` (racemic), the half-life was 112 days.

What is called half-life is the time needed for the level to fall by half in the phase considered.
